Values of other authors, collected in US20120209125A1, “Singlet Oxygen Production and Dosimetry for Photodynamic Therapy” (PHYSICAL SCIENCES, INC., priority 2011, published 2012).

Settings: isoflurane gas anesthesia; 'minimally metabolized'

SMILES: FC(F)OC(Cl)C(F)(F)F (stereo not shown) [isoflurane]
- fraction metabolized by the liver: < 0.17%
